Measurements reported in patent US20240277829A1, “HIV-1 VACCINATION AND SAMT-247 MICROBICIDE TO PREVENT HIV-1 INFECTION” (priority 2021, published 2024).
Entries after “also recorded” stand apart in the source; their conditions may differ.

Tests used:
[1] = system: SIVmac251; experiment: Weekly intravaginal SIVmac251 challenge of vaccinated and/or SAMT-247 gel treated female macaques; assay type: in vivo, Rhesus macaques
Excerpt: Animals. Fifty female Indian Rhesus macaques obtained from the free-range breeding colony on Morgan Island, South Carolina, were used in this study. The macaques, aged 2 to 3 years at study initiation, were negative for SIV, simian retrovirus, and STLV, and were MHC typed before being divided into 4 groups: vaccine/microbicide group (20 macaques, 3 A*01 positive, 1 B*17 positive, 1 B*08 positive); vaccine only group (18 macaques, 3 A*01 positive, 1 B*17 positive); microbicide only group (6 macaques, 1 both A*01 positive and B*17 positive) and control group (6 macaques, 1 both A*01 positive and B*17 positive). Data on 37 historical naïve controls intravaginally challenged with the same dose and lot of SIVmac251 were added to the control group to increase statistical power. […]
Immunization and Challenge. […] Up to 14 challenges were administered until the macaques became SIV positive as assessed by droplet digital PCR. […]
Statistical analysis. […] Comparisons of differences between groups in the number of challenges before viral acquisition were assessed using the log-rank (Mantel-Cox) test of the discrete-time proportional hazards model. […] Correlation analyses were performed using the non-parametric Spearman rank correlation method with exact permutation and approximate two-tailed P values calculated for the number of pairs≤17 and >17, respectively. […]

[2] = system: SIVmac251; conditions: cited from earlier work

Structure (SMILES): CC(=O)Sc1ccccc1C(=O)NCCC(N)=O [SAMT-247]
- risk of virus acquisition compared to controls ([1]; female macaques, up to 14 weekly intravaginal SIVmac251 exposures, SAMT-247 0.8% in HEC gel 4 h before each challenge): No differences in delayed acquisition; also recorded: did not significantly decrease; also recorded: had no effect
- peak virus levels, SAMT-247 only group vs controls ([1]; infected animals, peak VL at week 2): no difference
- effect in the SIVmac251 model ([2]; SAMT-247 alone 3 hours prior to each challenge, animals mock immunized with empty Ad vector and alum (Helmold Hait et al. 2020)): protective effect
- risk of SIVmac251 acquisition ([2]; gel given four hours before challenge exposure (Helmold Hait et al. 2020)): unable to decrease
